Measured values from patent US4442044A, “Process for preparing monoesters and diesters of N-alkyl substituted amino methyl phosphonic acid” (priority 1983, dated 1984).

Columns and labels:
Assay in all cases: post-emergent herbicidal activity, greenhouse
Assay type in all cases: in vivo
Conditions in all cases: Table I
Velvetleaf = test system: Velvetleaf
From the text: (§1) A good grade of top soil is placed in aluminum pans having holes in the bottom and compacted to a depth of 0.95 to 1.27 cm. from the top of the pan. A predetermined number of seeds of each of several dicotyledonous and monocotyledonous annual plant species and/or vegetative propagules for the perennial plant species were placed on the soil and pressed into the soil surface. The seeds and/or vegetative propagules are covered with soil and leveled. The pans are then placed on a sand bench in the greenhouse and watered from below as needed. After the plants reach the desired age (two to three weeks), each pan except for the control pans is removed individually to a spraying chamber and sprayed by means of an atomizer operating at a positive air pressure of approximately 1.46 kg/cm^2 absolute. The atomizer contains 6 ml. of a solution or suspension of the chemical. In that 6 ml., is an amount of a cyclohexanone emulsifying agent mixture to give a spray solution or suspension which contains about 0.4% by weight of the emulsifier. The spray solution or suspension contains a sufficient amount of the candidate chemical in order to give application rates corresponding to those set forth in the tables. The spray solution is prepared by taking an aliquot of a 1.0% by weight stock solution or suspension of the candidate chemical in an organic solvent such as acetone or tetrahydrofuran or in water. The emulsifying agent employed is a mixture comprising 35 weight percent butylamine dodecylbenzene sulfonate and 65 weight percent of a tall oil ethylene oxide condensate having about 11 moles of ethylene oxide per mole of tall oil. The pans are returned to the greenhouse and watered as before and the injury to the plants as compared to the control is observed at approximately two and four weeks as indicated in the tables under WAT and the results recorded. In some instances, the two-week observations are omitted.
(§2) The post-emergent herbicidal activity index used in Tables I and II is as follows: […]

Johnsongrass = test system: Johnsongrass
From the text: as §1, §2

Downy Brome = test system: Downy Brome
From the text: as §1, §2

Quackgrass = test system: Quackgrass
From the text: as §1, §2

Canada Thistle = test system: Canada Thistle
From the text: as §1, §2

Yellow Nutsedge = test system: Yellow Nutsedge
From the text: as §1, §2

Cocklebur = test system: Cocklebur
From the text: as §1, §2

Barnyardgrass = test system: Barnyardgrass
From the text: as §1, §2

Lambsquarters = test system: Lambsquarters
From the text: as §1, §2

Morningglory = test system: Morningglory
From the text: as §1, §2

Smartweed = test system: Smartweed
From the text: as §1, §2

In the case of `CC(C#N)OP(=O)(CNC(C)(C)C)OC(C)C#N` (centres unmarked) [Example 4, phosphonic acid, [[(1,1-dimethylethyl)amino]methyl]-,bis(1-cyanoethyl) ester], the “post-emergent herbicidal activity index” value (Velvetleaf; 2 WAT, 11.2 kg/h) is reported as 0 (0-24% control), the “post-emergent herbicidal activity index” value (Johnsongrass; 2 WAT, 11.2 kg/h) is reported as 0 (0-24% control) and the “post-emergent herbicidal activity index” value (Downy Brome; 2 WAT, 11.2 kg/h) is reported as 0 (0-24% control). The “post-emergent herbicidal activity index” value (Quackgrass; 2 WAT, 11.2 kg/h) was 0 (0-24% control), the “post-emergent herbicidal activity index” value (Canada Thistle; 2 WAT, 11.2 kg/h) was 0 (0-24% control) and the “post-emergent herbicidal activity index” value (Yellow Nutsedge; 2 WAT, 11.2 kg/h) was 0 (0-24% control). For the same compound, the “post-emergent herbicidal activity index” value (Cocklebur; 2 WAT, 11.2 kg/h) was 0 (0-24% control), the “post-emergent herbicidal activity index” value (Barnyardgrass; 2 WAT, 11.2 kg/h) was 1 (25-49% control) and the “post-emergent herbicidal activity index” value (Lambsquarters; 2 WAT, 11.2 kg/h) was 1 (25-49% control). For the same compound, the “post-emergent herbicidal activity index” value (Morningglory; 2 WAT, 11.2 kg/h) was 0 (0-24% control) and the “post-emergent herbicidal activity index” value (Smartweed; 2 WAT, 11.2 kg/h) was 1 (25-49% control).

With `N#CCCOP(=O)(CNCC#N)OCCC#N` [Example 11, phosphonic acid, [[(cyanomethyl)amino]-methyl],bis 2-(cyanoethyl)ester] the “post-emergent herbicidal activity index” value (Velvetleaf; 2 WAT, 5.6 kg/h) was 0 (0-24% control), the “post-emergent herbicidal activity index” value (Velvetleaf; 4 WAT, 11.2 kg/h) was 0 (0-24% control) and the “post-emergent herbicidal activity index” value (Johnsongrass; 2 WAT, 5.6 kg/h) was 0 (0-24% control). For the same compound, the “post-emergent herbicidal activity index” value (Johnsongrass; 4 WAT, 11.2 kg/h) was 0 (0-24% control), the “post-emergent herbicidal activity index” value (Downy Brome; 2 WAT, 5.6 kg/h) was 0 (0-24% control) and the “post-emergent herbicidal activity index” value (Downy Brome; 4 WAT, 11.2 kg/h) was 0 (0-24% control). For the same compound, the “post-emergent herbicidal activity index” value (Quackgrass; 2 WAT, 5.6 kg/h) was 0 (0-24% control), the “post-emergent herbicidal activity index” value (Quackgrass; 4 WAT, 11.2 kg/h) was 1 (25-49% control) and the “post-emergent herbicidal activity index” value (Canada Thistle; 2 WAT, 5.6 kg/h) was 0 (0-24% control). The “post-emergent herbicidal activity index” value (Canada Thistle; 4 WAT, 11.2 kg/h) was 2 (50-74% control), the “post-emergent herbicidal activity index” value (Yellow Nutsedge; 2 WAT, 5.6 kg/h) was 0 (0-24% control) and the “post-emergent herbicidal activity index” value (Yellow Nutsedge; 4 WAT, 11.2 kg/h) was 1 (25-49% control). For the same compound, the “post-emergent herbicidal activity index” value (Cocklebur; 2 WAT, 5.6 kg/h) was 0 (0-24% control), the “post-emergent herbicidal activity index” value (Cocklebur; 4 WAT, 11.2 kg/h) was 1 (25-49% control) and the “post-emergent herbicidal activity index” value (Barnyardgrass; 2 WAT, 5.6 kg/h) was 0 (0-24% control). For the same compound, the “post-emergent herbicidal activity index” value (Barnyardgrass; 4 WAT, 11.2 kg/h) was 1 (25-49% control), the “post-emergent herbicidal activity index” value (Lambsquarters; 2 WAT, 5.6 kg/h) was 1 (25-49% control) and the “post-emergent herbicidal activity index” value (Lambsquarters; 4 WAT, 11.2 kg/h) was 1 (25-49% control). For the same compound, the “post-emergent herbicidal activity index” value (Morningglory; 2 WAT, 5.6 kg/h) was 0 (0-24% control), the “post-emergent herbicidal activity index” value (Morningglory; 4 WAT, 11.2 kg/h) was 2 (50-74% control) and the “post-emergent herbicidal activity index” value (Smartweed; 2 WAT, 5.6 kg/h) was 0 (0-24% control). The “post-emergent herbicidal activity index” value (Smartweed; 4 WAT, 11.2 kg/h) was 1 (25-49% control).

In the case of `CCOC(=O)CNCP(=O)(OC(CC(=O)OCC)C(=O)OCC)OC(CC(=O)OCC)C(=O)OCC` (centres unmarked) [Example 14, butanoic acid, 2,2'-[[[(2-ethoxy-2-oxo-ethyl)amino]methyl]phosphinylidene]bis(oxy)-bis-,tetraethyl ester], the “post-emergent herbicidal activity index” value (Velvetleaf; 2 WAT, 5.6 kg/h) is reported as 0 (0-24% control), the “post-emergent herbicidal activity index” value (Velvetleaf; 2 WAT, 11.2 kg/h) is reported as 0 (0-24% control) and the “post-emergent herbicidal activity index” value (Velvetleaf; 2 WAT, 56.0 kg/h) is reported as 4 (100% control). The “post-emergent herbicidal activity index” value (Velvetleaf; 4 WAT, 56.0 kg/h) was 3 (75-99% control), the “post-emergent herbicidal activity index” value (Johnsongrass; 2 WAT, 5.6 kg/h) was 0 (0-24% control) and the “post-emergent herbicidal activity index” value (Johnsongrass; 2 WAT, 11.2 kg/h) was 0 (0-24% control). For the same compound, the “post-emergent herbicidal activity index” value (Johnsongrass; 2 WAT, 56.0 kg/h) was 3 (75-99% control), the “post-emergent herbicidal activity index” value (Johnsongrass; 4 WAT, 56.0 kg/h) was 3 (75-99% control) and the “post-emergent herbicidal activity index” value (Downy Brome; 2 WAT, 5.6 kg/h) was 0 (0-24% control). For the same compound, the “post-emergent herbicidal activity index” value (Downy Brome; 2 WAT, 11.2 kg/h) was 0 (0-24% control), the “post-emergent herbicidal activity index” value (Downy Brome; 2 WAT, 56.0 kg/h) was 3 (75-99% control) and the “post-emergent herbicidal activity index” value (Downy Brome; 4 WAT, 56.0 kg/h) was 2 (50-74% control). The “post-emergent herbicidal activity index” value (Quackgrass; 2 WAT, 5.6 kg/h) was 0 (0-24% control), the “post-emergent herbicidal activity index” value (Quackgrass; 2 WAT, 11.2 kg/h) was 0 (0-24% control) and the “post-emergent herbicidal activity index” value (Quackgrass; 2 WAT, 56.0 kg/h) was 4 (100% control). The “post-emergent herbicidal activity index” value (Quackgrass; 4 WAT, 56.0 kg/h) was 3 (75-99% control), the “post-emergent herbicidal activity index” value (Canada Thistle; 2 WAT, 5.6 kg/h) was 0 (0-24% control) and the “post-emergent herbicidal activity index” value (Canada Thistle; 2 WAT, 11.2 kg/h) was 0 (0-24% control). For the same compound, the “post-emergent herbicidal activity index” value (Canada Thistle; 2 WAT, 56.0 kg/h) was 4 (100% control), the “post-emergent herbicidal activity index” value (Canada Thistle; 4 WAT, 56.0 kg/h) was 1 (25-49% control) and the “post-emergent herbicidal activity index” value (Yellow Nutsedge; 2 WAT, 5.6 kg/h) was 0 (0-24% control). For the same compound, the “post-emergent herbicidal activity index” value (Yellow Nutsedge; 2 WAT, 11.2 kg/h) was 0 (0-24% control), the “post-emergent herbicidal activity index” value (Yellow Nutsedge; 2 WAT, 56.0 kg/h) was 4 (100% control) and the “post-emergent herbicidal activity index” value (Yellow Nutsedge; 4 WAT, 56.0 kg/h) was 1 (25-49% control). The “post-emergent herbicidal activity index” value (Cocklebur; 2 WAT, 5.6 kg/h) was 0 (0-24% control), the “post-emergent herbicidal activity index” value (Cocklebur; 2 WAT, 11.2 kg/h) was 0 (0-24% control) and the “post-emergent herbicidal activity index” value (Cocklebur; 2 WAT, 56.0 kg/h) was 4 (100% control). For the same compound, the “post-emergent herbicidal activity index” value (Cocklebur; 4 WAT, 56.0 kg/h) was 4 (100% control), the “post-emergent herbicidal activity index” value (Barnyardgrass; 2 WAT, 5.6 kg/h) was 0 (0-24% control) and the “post-emergent herbicidal activity index” value (Barnyardgrass; 2 WAT, 11.2 kg/h) was 0 (0-24% control). The “post-emergent herbicidal activity index” value (Barnyardgrass; 2 WAT, 56.0 kg/h) was 4 (100% control), the “post-emergent herbicidal activity index” value (Barnyardgrass; 4 WAT, 56.0 kg/h) was 3 (75-99% control) and the “post-emergent herbicidal activity index” value (Lambsquarters; 2 WAT, 5.6 kg/h) was 0 (0-24% control). The “post-emergent herbicidal activity index” value (Lambsquarters; 2 WAT, 11.2 kg/h) was 0 (0-24% control), the “post-emergent herbicidal activity index” value (Lambsquarters; 2 WAT, 56.0 kg/h) was 4 (100% control) and the “post-emergent herbicidal activity index” value (Lambsquarters; 4 WAT, 56.0 kg/h) was 4 (100% control). The “post-emergent herbicidal activity index” value (Morningglory; 2 WAT, 5.6 kg/h) was 0 (0-24% control), the “post-emergent herbicidal activity index” value (Morningglory; 2 WAT, 11.2 kg/h) was 0 (0-24% control) and the “post-emergent herbicidal activity index” value (Morningglory; 2 WAT, 56.0 kg/h) was 3 (75-99% control). The “post-emergent herbicidal activity index” value (Morningglory; 4 WAT, 56.0 kg/h) was 2 (50-74% control), the “post-emergent herbicidal activity index” value (Smartweed; 2 WAT, 5.6 kg/h) was 0 (0-24% control) and the “post-emergent herbicidal activity index” value (Smartweed; 2 WAT, 11.2 kg/h) was 0 (0-24% control). For the same compound, the “post-emergent herbicidal activity index” value (Smartweed; 2 WAT, 56.0 kg/h) was 4 (100% control) and the “post-emergent herbicidal activity index” value (Smartweed; 4 WAT, 56.0 kg/h) was 3 (75-99% control).
